Measured values published in patent publication US5070074A, “Hypoglycemic and growth-promoting polypeptides isolated from bacitracin” (Protor Co., priority 1990, dated 1991).

Tested on: insulinase
Assay: insulinase inhibitory activity (method of Duckworth et al.)
Type: biochemical
Details: peaks from CM-Sepharose fractionation of commercial bacitracin
Procedure: The desired fraction is believed to have a molecular weight of about 1400, approximately the same as bacitracin A or F. Their anti-insulinase and antibacterial activities can be assayed in conventional manner. For example, the insulinase inhibitory activity was measured according to the method of Duckworth, et al., Proc. Nat. Acad. Sci., 69, 3698-3702 (1972) and the anti-bacterial activity by the method of Patrick, et al., Antibiotics and Chemotherapy, 1, 133-137 (1951).
A 350 ml bed volume of CM-Sepharose in a packed column (2.8×56 cm) was equilibrated with 0.05M ammonium acetate, pH 4.5 One gram of commercial bacitracin dissolved in 50 ml of buffer was applied to the packed column. The material was eluted with […] of equilibrating buffer followed by 350 ml of 1M ammonium acetate pH 4.5 buffer. Five ml fractions were collected and absorbance measurements at 252, 280 and 290 nm were made. In addition, insulinase inhibitory activity measurements were made on each peak. […] The peaks were collected, lyophilized, weighed and dissolved in water at 5 mg/ml concentration for specific activity measurements. The material collected with the second buffer contained 5-10 % of the total weight of the applied material and 90 % of the total insulinase inhibitory capacity. The specific activity of this material was 10-12 times that of the starting commercial material.

With bacitracin A the insulinase inhibitory activity was “negligible” and the insulinase inhibitory activity (listed as bacitracin A) was “substantially no”.
With bacitracin F the insulinase inhibitory activity was “negligible” and the insulinase inhibitory activity (listed as bacitracin F) was “substantially no”.
